Source: patent US5616579A, “Anti-ulcer pyridyloxy derivatives, their preparation and uses” (Sankyo Company, Limited, priority 1992, dated 1997)

What was measured:
[1] = tested on: gastric mucosa; assay: HCl-Ethanol-Induced Ulcer Test in Rats; type: in vivo, rat (male SD); conditions: dose 50 mg/kg, oral, 60 minutes before HCl-ethanol
Protocol: HCl-Ethanol-Induced Ulcer Test in Rats
Male SD rats (6 to 8 weeks old) were fasted for 24 hours before the beginning of the experiment. Each was then administered orally with 1 ml of a 60% ethanol solution containing 150 mM of hydrogen chloride. After 1 hour, the stomach was excised. Into the stomach was injected 10 ml of a 0.5% formaldehyde solution, and the stomach was fixed for 20 minutes. The injured area (mm^2) occuring on the surface of the gastric mucosa was measured, and the total injured area per rat was regarded as the injury index.
Test compounds and 0.5% CMC, as the control, were orally administered each at a dose of 0.1 ml/100 g, 60 minutes before treatment with the HCl-ethanol solution.
The ulcer formation inhibitory rate (R %) was calculated by the following equation.
A: The injury index of the control group (mm^2)
B: The injury index of the drug administered group (mm^2)

[2] = tested on: guinea pig right atrium; assay: Atrial Test in Guinea Pigs (inhibition of histamine-stimulated heart rate, isolated right atrium); conditions: Cavia porcellus; test compound 1 μg/ml; 10^-5 M histamine; heart rate vs control
Protocol: Atrial Test in Guinea Pigs
The guinea pig right atrium in a spontaneous palpitation was excised, suspended in 40 ml of Krebs-Henselite solution, and a tension of 1 g was loaded between the atrium preparation and a transducer. The solution was aerated at a fixed rate at 37° C. 10^-5 M histamine was added, and the heart rate was recorded as control. A test compound was added to a concentration of 1 μg/ml and then, after 3 minutes, 10^-5 M histamine was added, and the heart rate was again recorded. The inhibitory rate (R %) compared to the control group was calculated according to the following equation: […]
A: The heart rate of the control group
B: The heart rate of the group to which the drug was administered

[3] = tested on: gastric acid output; assay: Inhibition of Gastric Secretions (Shay's method, pylorus-ligated rats); type: in vivo, rat (male SD); conditions: Rattus norvegicus, intraduodenal, 4 hours
Protocol: Inhibition of Gastric Secretions
This test was carried out according to Shay's method [H. Shay: Gastroenterology 5, 43 (1945)] using male SD rats (5 weeks old). The rats were divided into groups, each group containing 5 rats. The animals were fasted for 24 hours before the beginning of the experiment. They were then anesthetized with ether, the abdominal region was opened, and the pylorus was ligated. A test compound suspended in a 0.5% w/v aqueous carboxymethylcellulose (CMC) solution was administered intraduodenally. After 4 hours, the rat was sacrificed by deep anesthesia with ether, and the stomach was excised. The gastric juice was removed, centrifuged for 15 minutes at 2500 rpm, and then 0.1 ml of the supernatant was taken out and titrated until the end point of neutralization with a 0.01N aqueous solution of sodium hydroxide, to determine the total gastric acidity. The amount of gastric acid secreted per hour (μEq/hr) was calculated, and the inhibition rate (R %) to the control group was calculated according to the following equation.
A: The gastric acid output of the control group (μEq/hr)
B: The amount of gastric acid output of the drug administered group (μEq/hr)

Structure (SMILES) | % Inhibition (ulcer formation) [1] [%] | inhibition at 1 µg/mL [2] [%] | inhibition in vivo at 50 mg/kg [3] [%] | inhibition in vivo at 25 mg/kg [3] [%] | inhibition in vivo at 12.5 mg/kg [3] [%]
CC(=O)OCCSCC(=O)NC/C=C\COc1cc(CN2CCCCC2)ccn1 [Example 2, N-[4-(4-Piperidinomethyl-2-pyridyloxy)-cis-2-butenyl]-2-(2-acetoxyethylthio)acetamide] | 100 | 90 | 52 | – | –
CC(=O)OCCSCCCC(=O)NC/C=C\COc1cc(CN2CCCCC2)ccn1 [Example 6, N-[4-(4-Piperidinomethyl-2-pyridyloxy)-cis-2-butenyl]-4-(2-acetoxyethylthio)butyramide] | – | 86 | 73 | – | –
CC(C)NC(=O)NC/C=C\COc1cc(CN2CCCCC2)ccn1 [Example 48, N-[4-(4-piperidinomethyl-2-pyridyloxy) -cis-2-butenyl]-N'-isopropylurea] | 78 | 81 | 71 | – | –
O=C(NC/C=C\COc1cc(CN2CCCCC2)ccn1)c1cn[nH]c1 [Example 13, N-[4-(4-piperidinomethyl-2-pyridyloxy)-cis-2-butenyl]pyrazole-4-carboxamide] | 87 | 84 | 80 | 62 | –
O=C(CCCSc1ncccn1)NC/C=C\COc1cc(CN2CCCCC2)ccn1 [Example 34, N-[4-(4-Piperidinomethyl-2-pyridyloxy) -cis-2-butenyl]-4-(2-pyrimidinylthio) butyramide] | 79 | 94 | – | 86 | 61
Nc1n[nH]cc1C(=O)NC/C=C\COc1cc(CN2CCCCC2)ccn1 [Example 17, 3-Amino-N-[4-(4-piperidinomethyl-2-pyridyloxy) -cis-2-butenyl]pyrazole-4-carboxamide] | – | 83 | 71 | 73 | –
O=C(NC/C=C\COc1cc(CN2CCCCC2)ccn1)c1cscn1 [Example 26, N-[4-(4-Piperidinomethyl-2-pyridyloxy) -cis-2-butenyl]thiazole-4-carboxamide] | – | 80 | – | – | –
CCC(=O)OCCSCC(=O)NC/C=C\COc1cc(CN2CCCCC2)ccn1 [Example 7, N-[4-(4-Piperidinomethyl-2-pyridyloxy)-cis-2-butenyl]-2-(2-propionyloxyethylthio)acetamide] | 61 | – | – | 63 | 51
O=C(NC/C=C\COc1cc(CN2CCCCC2)ccn1)NC1CCC1 [Example 58, N-Cyclobutyl-N'-[4-(4-piperidinomethyl-2-pyridyloxy) -cis-2-butenyl]urea] | – | – | 56 | – | –
O=C(CCCSc1nc[nH]n1)NC/C=C\COc1cc(CN2CCCCC2)ccn1 [Example 41, N-[4-(4-Piperidinomethyl-2-pyridyloxy)-cis-2-butenyl]-4-(1,2,4-triazol-3-ylthio)butyramide] | – | 85 | 76 | 61 | –
O=C(CSCc1ccco1)NC/C=C\COc1cc(CN2CCCCC2)ccn1 [Compound B, reference compound] | 97 | 99 | -40 | – | –
O=C(CSCCO)NCCCOc1cccc(CN2CCCCC2)c1 [Compound A, reference compound] | 39 | 68 | -67 | – | –
O=C(CSCCO)NC/C=C\COc1cc(CN2CCCCC2)ccn1 [Example 1, N-[4-(4-piperidinomethyl-2-pyridyloxy)-cis-2-butenyl]-2-(2-hydroxyethylthio)acetamide] | – | 86 | 63 | – | –
Cc1nnc(SCCCC(=O)NC/C=C\COc2cc(CN3CCCCC3)ccn2)o1 [Example 37, N-[4-(4-Piperidinomethyl-2-pyridyloxy)-cis-2-butenyl]-4-(5-methyl-1,3,4-oxadiazol-2-ylthio)butyramide] | – | 99 | 74 | – | –
